Test results reported in patent publication US20230348454A1, “COMPOUNDS AS MODULATORS OF BIS-PHOSPHOGLYCERATE MUTASE FOR THE TREATMENT OF SICKLE CELL DISEASE” (Genzyme Corporation, priority 2020, published 2023).
Where two headings read alike, the source gives them in different places.

Assays:
hBPGM = molecular target: T1, hBPGM (Homo sapiens, UniProt P07738); assay: BPGM synthase assay; type: biochemical; settings: Table 6; read-out: huBPGM: synthase Enzyme IC50
T1 sequence (P07738 1-259): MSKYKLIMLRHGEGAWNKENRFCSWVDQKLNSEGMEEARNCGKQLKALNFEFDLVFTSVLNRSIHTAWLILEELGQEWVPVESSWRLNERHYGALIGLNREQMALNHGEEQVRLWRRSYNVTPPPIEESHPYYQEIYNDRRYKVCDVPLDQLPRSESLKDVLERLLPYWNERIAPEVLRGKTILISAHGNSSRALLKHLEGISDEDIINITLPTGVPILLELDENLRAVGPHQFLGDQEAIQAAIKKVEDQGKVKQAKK
Summary of the method: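 The enzyme solution held 5 nM BPGM with 0.4 U/mL coupling GAPDH in Tris pH 7.4, 3.23 mM KH2PO4, 1 mM DTT, and compounds were pre-incubated 30 min at RT. Substrate solution (2 mM NAD, 20 μM 3PG, 800 μM GAP) reacted 60 min before a koningic acid quench. NADH fluorescence (360/460) and diaphorase/resazurin-derived resorufin (544/590) were read.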

[1] = molecular target: T2, human Bisphosphoglycerate mutase (hBPGM) (Homo sapiens, UniProt P07738); assay: BPGM phosphatase assay; type: biochemical
T2 sequence (P07738 1-259): T1 sequence (P07738 1-259)
Protocol: The following materials were used in this assay: Tris buffer (50 mM Tris, 0.01% Tween 20, pH 7.4); cyclohexylammonium salt of 2,3-BPG (stock solution of 500 mM in ultapure distilled water; human Bisphosphoglycerate mutase (hBPGM; stock solution of 110 μM in Standard Buffer); 3-Phosphoglyceric acid (3-PG; stock solution of 100 mM in ultrapure distilled water); 384-Well Polystyrene Plates (Fisherbrand™, Catalog No.: 12-566-625); BIOMOL GREEN REAGENT (Enzo life sciences, BML-AK111-0250); and 1 mM DMSO stock of exemplary compounds.
A 3-PG enzyme mix solution (final enzyme concentration 62.5 nM, 3-PG concentration at 50 µM, 14.5 uL) was added to onto a 384-well clear plate. Solutions of the test compounds were then added to the plate and the DMSO content was normalized across the plate. The plate was incubated at RT for 15 min. Next, the substrate 2,3-BPG (5 μL) was added to all the wells, and the plate was sealed and incubated for 24 hr at RT. After incubation, BIOMOL green dye (40 μL) was added to all the wells, the plate was shaken to mix, and the plate was incubated at RT for 20-30 min. Absorbance measurements were recorded at 620 nm.

human red blood cells = assay: Human cell-based assay (2,3-BPG, ATP by LC/MS); settings: Erythrocyte, whole blood suspension, 37° C., 24 h, read-out: hRBC EC50
Protocol: The following materials were used in this assay: DMSO; Hemox buffer (30 mM TES, 135 mM NaCl, 5 mM KCl, pH 7.4); Inosine (100 mM in hemox buffer); Glucose (1 M in water); human red blood cells; LC/MS Optima grade methanol; LC/MS Optima grade water; and Incubation buffer (30 mM TES, 135 mM NaCl, 5 mM KCl, 50 mM inosine, 20 mM glucose pH 7.4).
Test compounds were loaded onto a 96-well plate (final concentration of DMSO was 1%). 10 mL whole blood was resuspended with an equivalent amount of 2× incubation buffer to make 25% het & 50% plasma solution. The final solution contains 10 mM glucose and 25 mM inosine. The blood suspension (100 uL) was added to the wells of the plate. The plate was covered with an adhesive foil cover and plastic lid, and incubated at 37° C. for 24 h. The samples were extracted through an SPE column and the metabolites (2,3-BPG, ATP) were analyzed by LC/MS.

[2] = Table 6, read-out: huBPGM: phosphatase Enzyme EC50
[3] = Table 4, read-out: hBPGM Phosphatase EC50

IC50 (hBPGM)	EC50 [1, 2]	EC50 [1, 3]	EC50 (human red blood cells)	SMILES
410 nM	180 nM			Cc1nc(CNC(=O)c2cccnn2)sc1-c1csc(-c2cc(F)c(O)c(F)c2)n1 [Example 201]
23 nM	2700 nM			Cc1nc(COC(=O)N(C)C)sc1-c1cccc(-c2cc(F)c3nn[nH]c3c2F)n1 [Example 125]
200 nM	150 nM			COC(=O)NCc1nc(C)c(-c2csc(-c3ccc4[nH]nnc4c3F)n2)s1 [Example 156]
21 nM	> 25000 nM			Cc1nc(CNc2ncccn2)sc1-c1cccc(-c2cc(F)c3nn[nH]c3c2F)n1 [Example 126]
560 nM	330 nM			Cc1nc(COC(=O)N(C)C)sc1-c1cccc(-c2cc(F)c(O)c(F)c2F)n1 [Example 169]
2300 nM	> 25000 nM			Cc1nc(COCC(=O)N2CCN(CCO)CC2)sc1-c1csc(-c2cc(F)c(O)c(F)c2F)n1 [Example 104]
220 nM	130 nM			Cc1nc(CNc2ncccn2)sc1-c1cccc(-c2cc(F)c(O)c(F)c2F)n1 [Example 168]
960 nM	> 25000 nM			Cc1nc(CNC(=O)C(C)CN(C)C)sc1-c1cccc(-c2cc(F)c3nn[nH]c3c2F)n1 (stereo not drawn) [Example 138]
290 nM	1800 nM			Cc1nc(COc2ncccn2)sc1-c1cccc(-c2ccc(O)c(C#N)c2)n1 [Example 159]
15 nM	10000 nM			Cc1ccnc(OCc2nc(C)c(-c3cccc(-c4cc(F)c5nn[nH]c5c4F)n3)s2)n1 [Example 130]
84 nM	140 nM			Cc1nc(CNC(=O)c2cccnn2)sc1-c1csc(-c2cc(F)c(O)c(F)c2F)n1 [Example 188]
240 nM	530 nM			Cc1nc(COc2ncccn2)sc1-c1cccc(-c2ccc(C#N)c(O)c2)n1 [Example 158]
260 nM	40 nM			COc1cnc(OCc2nc(C)c(-c3cccc(-c4cc(F)c5nn[nH]c5c4)n3)s2)nc1 [Example 142]
17 nM	40 nM	40 nM		Cc1cnc(OCc2nc(C)c(-c3cccc(-c4cc(F)c5nn[nH]c5c4F)n3)s2)nc1 [compound 8]
240 nM	350 nM			Cc1nc(CNC(=O)c2cccnn2)sc1-c1csc(-c2cc(F)c(O)c(F)c2F)n1 [Example 186]
810 nM	1900 nM			COC(=O)NCc1nc(C)c(-c2cccc(-c3cc(F)c(O)c(F)c3F)n2)s1 [Example 171]
1100 nM	880 nM			Cc1nc(COCC(=O)N(C)C)sc1-c1cccc(-c2cc(F)c(O)c(F)c2F)n1 [Example 170]
1500 nM	20000 nM			Cc1nc(COc2ncccn2)sc1-c1cccc(-c2ccc3nnc(O)n3c2)n1 [Example 151]
460 nM	520 nM			Cc1nc(COCC(=O)N(C)C)sc1-c1csc(-c2cc(F)c(O)c(F)c2F)n1 [Example 160]
130 nM	310 nM	310 nM		Cc1nc(COc2ncccn2)sc1-c1csc(-c2cc(F)c(O)c(F)c2F)n1 [compound 10]
4200 nM	3300 nM			COC(=O)NCc1nc(C)c(-c2csc(-c3ccc(O)c(F)c3F)n2)s1 [Example 190]
110 nM	49 nM			Cc1nc(COc2ncccn2)sc1-c1csc(-c2cc(F)c(O)c(F)c2F)c1 [Example 154]

IC50 (hBPGM)	EC50 [1, 2]	EC50 [1, 3]	EC50 (human red blood cells)	SMILES
170 nM	260 nM			Cc1nc(COCC(=O)N(C)C)sc1-c1cccc(-c2cc(F)c3nn[nH]c3c2)n1 [Example 163]
250 nM	30 nM			Cc1nc(COc2ncccn2)sc1-c1csc(-c2cc(F)c3[nH]nnc3c2)c1 [Example 145]
550 nM	490 nM			Cc1nc(COC(=O)N2CCN(C)CC2)sc1-c1cccc(-c2cc(F)c3nn[nH]c3c2)n1 [Example 147]
820 nM	370 nM			Cc1nc(CNC(=O)c2cccnn2)sc1-c1csc(-c2cc(F)c(O)c(F)c2)c1 [Example 194]
1100 nM	1600 nM			COC(=O)NCc1nc(C)c(-c2csc(-c3cc(F)c(O)c(F)c3)n2)s1 [Example 191]
330 nM	40 nM			CCc1cnc(OCc2nc(C)c(-c3cccc(-c4cc(F)c5nn[nH]c5c4F)n3)s2)nc1 [Example 144]
160 nM	240 nM			Cc1nc(COc2ncc(C(=O)O)cn2)sc1-c1cccc(-c2cc(F)c3nn[nH]c3c2F)n1 [Example 135]
300 nM	480 nM			COC(=O)NCc1nc(C)c(-c2csc(-c3cc(F)c(O)c(F)c3F)n2)s1 [Example 187]
170 nM	240 nM			Cc1nc(COc2ncccn2)sc1-c1cccc(-c2ccc(C(=O)NS(=O)(=O)c3ccccc3)cc2)n1 [Example 157]
980 nM	310 nM			COC(=O)NCc1nc(C)c(-c2csc(-c3cc(O)c(C#N)cc3F)c2)s1 [Example 189]
2200 nM	380 nM			Cc1nc(COC(C)C(=O)N(C)C)sc1-c1csc(-c2cc(F)c(O)c(F)c2F)n1 (stereo not drawn) [Example 98]
6100 nM	3600 nM			COC(=O)NCc1nc(C)c(-c2csc(-c3ccc(O)c(F)c3)n2)s1 [Example 203]
			22500 nM	COC(=O)NCc1nc(C)c(-c2csc(-c3cc(F)c4[nH]nnc4c3F)n2)s1 [compound 16]
40 nM	30 nM			Cc1cnc(OCc2nc(C)c(-c3cccc(-c4cc(F)c5nn[nH]c5c4)n3)s2)nc1 [Example 152]
110 nM	170 nM			COC(=O)NCc1nc(C)c(-c2csc(-c3ccc4[nH]nnc4c3F)n2)s1 [Example 166]
92 nM	110 nM			Cc1nc(CNc2ncccn2)sc1-c1csc(-c2cc(F)c(O)c(F)c2F)n1 [Example 165]
81 nM	60 nM			Cc1ccnc(OCc2nc(C)c(-c3cccc(-c4cc(F)c5nn[nH]c5c4)n3)s2)n1 [Example 153]
79 nM	30 nM			Cc1nc(CNc2ncccn2)sc1-c1csc(-c2cc(F)c3[nH]nnc3c2)n1 [Example 175]
130 nM	75 nM			Cc1nc(COC(=O)N(C)C)sc1-c1cccc(-c2cc(F)c3nn[nH]c3c2)n1 [Example 167]
1400 nM	1200 nM			COC(=O)NCc1nc(C)c(-c2csc(-c3ccc(C(=O)NS(C)(=O)=O)c(O)c3)n2)s1 [Example 206]
44 nM	40 nM			Cc1nc(CNc2ncccn2)sc1-c1cccc(-c2cc(F)c3nn[nH]c3c2)n1 [Example 155]
